“And” between values parts separate entries of the source, which are not always exact repeats. Equal entries are not always repeated.
Molecular target: T1, Trypsin from a bovine pancreas (Bos taurus, UniProt P00760)
T1 construct: Trypsin from a bovine pancreas; purchased Sigma-Aldrich T8802; host or cells: bovine pancreas (tissue-derived)
T1 sequence (P00760 24-246): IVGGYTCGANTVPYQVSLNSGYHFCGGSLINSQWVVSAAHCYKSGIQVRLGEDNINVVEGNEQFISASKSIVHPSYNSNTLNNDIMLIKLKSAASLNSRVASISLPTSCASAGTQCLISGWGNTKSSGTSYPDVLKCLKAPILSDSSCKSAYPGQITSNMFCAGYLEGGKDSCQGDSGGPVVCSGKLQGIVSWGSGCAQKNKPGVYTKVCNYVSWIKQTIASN
Experiment: Trypsin assay (fluorogenic substrate Z-Phe-Arg-7-amido-4-methylcoumarin, kinetic slope vs vehicle control)
Type: biochemical
Details: single-well values, n=8 wells
Description: Trypsin from a bovine pancreas (available from Sigma-Aldrich, USA, Catalog #T8802) is diluted in phosphate buffered saline (PBS) to make a stock of about 0.001% trypsin. In a 96 well white plate with clear bottom (e.g., Corning Costar #3904 available from _VWR International, LLC, Pennsylvania, USA), about 90 uL of 0.001% trypsin stock is mixed with about 10 uL of a test compound (e.g., N-undecylenoyl-L-phenylalanine) or vehicle control, such as dimethyl sulfoxide (DMSO) or water. Typically, there are 8 control wells per plate. The assay is initiated by the addition of 100 uL of the substrate, Z-Phe-Arg-7-amido-4-methylcoumarin (e.g., Calbiochem Catalog #03-32-1501-10 mM in PBS available from Life Technologies, California, USA) and the well plate is monitored in a fluorescent plate reader (e.g., a Gemini plate reader) with an excitation wavelength of 360 nm and an emission wavelength of 460 nm. The reaction progress is measured in a kinetic mode for 5 minutes. SoftMaxPro Data Analysis Software (available from Molecular Devices, Inc.) is used to fit a line to the data points for each well, and the slopes of the lines are then calculated. The slopes of each test compound well are compared to the average of the slopes of the vehicle control wells of a plate to determine the percentage of trypsin activity using equation (1) below. As the trypsin hydrolyzes the substrate, the fluorescence of the 7-amido-coumarin group increases, causing a growth in the signal which reflects the level of trypsin activity. An inhibitor attenuates the fluorescence growth resulting in a smaller slope. Percent(%)trypsin activity=[slope of test well]/[average slope of vehicle control wells] (1)
Using generally the method outlined above, the percentage of trypsin activity was measured for 1:900 dilution of 1% N-undecylenoyl-L-phenylalanine, 3% myo-inositol, 5% niacinamide, and 5% hexyldecanol using a sample size of n=8 wells for each compound. […]

In the case of `CCCCCCCCC(CO)CCCCCC` (stereo not shown) [Hexyldecanol, 2-Hexyldecan-1-ol], the “% Activity (percentage of trypsin activity)” value (1:900 dilution of 5% hexyldecanol) was 87.1% and 90.7% and 85.7% and 100.0% and 112.4% and 112.0% and 88.7% and 95.4%.
In the case of `O[C@H]1[C@H](O)[C@@H](O)[C@H](O)[C@@H](O)[C@H]1O` [Myo-Inositol, myo-inositol], the “% Activity (percentage of trypsin activity)” value (1:900 dilution of 3% myo-inositol) was 93.8% and 112.4% and 101.4% and 108.9% and 108.0% and 121.4% and 95.6% and 109.2%.
`NC(=O)c1cccnc1` [Niacinamide, niacinamide] was tested, and the “% Activity (percentage of trypsin activity)” value (1:900 dilution of 5% niacinamide) was 106.0% and 91.8% and 91.3% and 107.7% and 111.1% and 109.1% and 93.9% and 88.7%.
In the case of `C=CCCCCCCCCC(=O)N[C@@H](Cc1ccccc1)C(=O)O` [N-undecylenoyl-L-phenylalanine], the “% Activity (percentage of trypsin activity)” value (1:900 dilution of 1% N-undecylenoyl-L-phenylalanine, >100% up-regulation, <100% inhibition) was 91.4% and 104.9% and 97.2% and 100.5% and 121.8% and 116.3% and 79.9% and 99.8%.
